In US20120035187A1 (priority 2009, published 2012):

Test system: PC12-HS cells
Test: Evaluation B: neurite-outgrowth action in presence of NGF
Assay type: cell-based, rat
Conditions: 3 days; for Evaluation B: Neurite-outgrowth action: 50 μl of 400 ng/ml test sample solution per well + NGF final 5 ng/ml

Compound | Percentage (%) of cells with neurite outgrowth (50 μl/well of 2 μg/ml test solution + NGF final 5 ng/ml) [%] | Evaluation B: Neurite-outgrowth action
CCCCN1C(C)=CS\C1=C/C=C(\C=C\c1scc(C)[n+]1CCCC)c1scc(C)[n+]1CCCC.[Cl-].[Cl-] [NK-56] | 28 | 
CCN1C(C)=CS/C1=C\C=C\c1scc(C)[n+]1CC [NK-67] |  | ∘ (The test sample with a neurite outgrowth rate of 30% or higher was judged to be equivalent or more (∘) compared with NK-4)
CCN1/C(=C/C=C/c2oc3ccccc3[n+]2CC)Oc2ccccc21.[I-] [NK-85] |  | ∘ (The test sample with a neurite outgrowth rate of 30% or higher was judged to be equivalent or more (∘) compared with NK-4)
CN1/C(=C/C=C/c2oc3ccccc3[n+]2C)Oc2ccccc21.[I-] [NK-86] |  | ∘ (The test sample with a neurite outgrowth rate of 30% or higher was judged to be equivalent or more (∘) compared with NK-4)
CN1/C(=C/c2oc3ccccc3[n+]2C)Oc2ccccc21.[I-] [NK-87] |  | ∘ (The test sample with a neurite outgrowth rate of 30% or higher was judged to be equivalent or more (∘) compared with NK-4)
CN1/C(=C/C=C/C=C/C=C/C2=[N+](C)c3ccccc3C2(C)C)C(C)(C)c2ccccc21.[I-] [NK-125] |  | ∘ (The test sample with a neurite outgrowth rate of 30% or higher was judged to be equivalent or more (∘) compared with NK-4)
CCN1/C(=C/C=C/C=C/c2sc3ccccc3[n+]2CC)Sc2ccccc21.[I-] [NK-136] |  | ∘ (The test sample with a neurite outgrowth rate of 30% or higher was judged to be equivalent or more (∘) compared with NK-4)
CCCCCCC[n+]1c(/C=C/c2ccc(N(C)C)cc2)ccc2ccccc21.[I-] [NK-231] |  | ∘ (The test sample with a neurite outgrowth rate of 30% or higher was judged to be equivalent or more (∘) compared with NK-4)
CCCCCCCN1C(C)=CS/C1=C\c1scc(C)[n+]1CCCCCCC.[I-] [NK-266] |  | ∘ (The test sample with a neurite outgrowth rate of 30% or higher was judged to be equivalent or more (∘) compared with NK-4)
CCN1/C(=C/c2cc[n+](CC)c3ccccc23)C=Cc2ccccc21.[I-] [NK-276] |  | ∘ (The test sample with a neurite outgrowth rate of 30% or higher was judged to be equivalent or more (∘) compared with NK-4)
CCCCCCC[n+]1c(C)csc1/C=C/c1ccc(N(C)C)cc1.[Cl-] [NK-279] |  | ∘ (The test sample with a neurite outgrowth rate of 30% or higher was judged to be equivalent or more (∘) compared with NK-4)
CC(C)CC[n+]1ccc(/C=C/c2ccc(N(C)C)cc2)c2ccccc21.[I-] [NK-282] |  | ∘ (The test sample with a neurite outgrowth rate of 30% or higher was judged to be equivalent or more (∘) compared with NK-4)
CC[n+]1c(/C=C/C=C/c2ccc(N(C)C)cc2)sc2ccccc21.[I-] [NK-375] |  | ∘ (The test sample with a neurite outgrowth rate of 30% or higher was judged to be equivalent or more (∘) compared with NK-4)
CCN1/C(=C/C=C/c2sc3ccc4ccccc4c3[n+]2CC)Sc2ccc3ccccc3c21.[I-] [NK-382] |  | ∘ (The test sample with a neurite outgrowth rate of 30% or higher was judged to be equivalent or more (∘) compared with NK-4)
CCCCN1C(C)=CS/C1=C\c1scc(C)[n+]1CCCC.[I-] [NK-399] |  | ∘ (The test sample with a neurite outgrowth rate of 30% or higher was judged to be equivalent or more (∘) compared with NK-4)
CCCC[n+]1c(C=Cc2ccc(N(C)C)cc2)sc2ccccc21.[I-] [NK-490] |  | ∘ (The test sample with a neurite outgrowth rate of 30% or higher was judged to be equivalent or more (∘) compared with NK-4)
CC[n+]1ccc(/C=C/C=C/c2ccc(N(C)C)cc2)c2ccccc21.[I-] [NK-526] |  | ∘ (The test sample with a neurite outgrowth rate of 30% or higher was judged to be equivalent or more (∘) compared with NK-4)
Cc1ccc2c(c1)S/C(=C\c1sc3cc(C)ccc3[n+]1C)N2C.[I-] [NK-594] |  | ∘ (The test sample with a neurite outgrowth rate of 30% or higher was judged to be equivalent or more (∘) compared with NK-4)
CC[n+]1ccc(/C=C/c2ccc3c(c2)OCO3)c2ccccc21.[I-] [NK-629] |  | ∘ (The test sample with a neurite outgrowth rate of 30% or higher was judged to be equivalent or more (∘) compared with NK-4)
CCN1/C(=C/C=C/c2cc[n+](CC)c3ccccc23)Oc2ccccc21.[I-] [NK-741] |  | ∘ (The test sample with a neurite outgrowth rate of 30% or higher was judged to be equivalent or more (∘) compared with NK-4)
CCN1/C(=C/c2cc[n+](CC)c3ccccc23)Sc2ccccc21.[I-] [NK-750] |  | ∘ (The test sample with a neurite outgrowth rate of 30% or higher was judged to be equivalent or more (∘) compared with NK-4)
CCN1/C(=C/c2oc3ccccc3[n+]2CC)Oc2ccccc21.[I-] [NK-863] |  | ∘ (The test sample with a neurite outgrowth rate of 30% or higher was judged to be equivalent or more (∘) compared with NK-4)
CCN1/C(=C/c2ccc3ccccc3[n+]2CC)C=Cc2ccccc21.[Br-] [NK-1046] |  | ∘ (The test sample with a neurite outgrowth rate of 30% or higher was judged to be equivalent or more (∘) compared with NK-4)
CCN1/C(=C/c2oc3ccccc3[n+]2CC)Sc2ccccc21.[I-] [NK-1049] |  | ∘ (The test sample with a neurite outgrowth rate of 30% or higher was judged to be equivalent or more (∘) compared with NK-4)
CC[n+]1c(/C=C/c2ccc(N(C)C)cc2)[se]c2ccccc21.[I-] [NK-1055] |  | ∘ (The test sample with a neurite outgrowth rate of 30% or higher was judged to be equivalent or more (∘) compared with NK-4)
CCN1/C(=C/c2sc3ccccc3[n+]2CC)Sc2ccccc21.[Br-] [NK-1560] |  | ∘ (The test sample with a neurite outgrowth rate of 30% or higher was judged to be equivalent or more (∘) compared with NK-4)
CN1/C(=C/C2=[N+](C)c3ccccc3C2(C)C)Oc2ccccc21.[I-] [NK-1684] |  | ∘ (The test sample with a neurite outgrowth rate of 30% or higher was judged to be equivalent or more (∘) compared with NK-4)
CCN1/C(=C/C=C/C=C/c2sc3ccc4ccccc4c3[n+]2CC)Sc2ccc3ccccc3c21.[I-] [NK-2409] |  | ∘ (The test sample with a neurite outgrowth rate of 30% or higher was judged to be equivalent or more (∘) compared with NK-4)
CCN1/C(=C/C2=CC(=C/C=C/C3=CC(=C/c4sc5ccccc5[n+]4CC)/CC(C)(C)C3)/CC(C)(C)C2)Sc2ccccc21.[O-][Cl+3]([O-])([O-])[O-] [NK-2545] |  | ∘ (The test sample with a neurite outgrowth rate of 30% or higher was judged to be equivalent or more (∘) compared with NK-4)
CCCCCN1/C(=C/C2=[N+](C)c3ccccc3C2(C)C)C(C)(C)c2ccccc21.[O-][Cl+3]([O-])([O-])[O-] [NK-3206] |  | ∘ (The test sample with a neurite outgrowth rate of 30% or higher was judged to be equivalent or more (∘) compared with NK-4)
